The record followed here is ChEMBL document CHEMBL3507680, “University of Dundee, Gates Library screen for HepG2 cell viability”.

The series can be described thus: Human HepG2 cell viability assay in 384 well format. The arrangement: dose 125 nL, time 70.5 hour; cytotoxicity at 70.5 h: concentration not given beside the values. The class given is toxicity, cell-based. The conditions noted are these: HepG2 cells, read-out: Inhibition.
For `O=C(CSC1CCc2ccccc2NC1=O)Nc1ccc(CCO)cc1` (stereo not drawn), the cytotoxicity at 70.5 h was -1.18%. With `CCC1=N[C@@]2(CC[C@@H]3CN(Cc4ccccc4F)C[C@@H]32)C(=O)N1`, the cytotoxicity at 70.5 h is -6.13%.

With `Cc1cnn(CC2CCCCN2C(=O)c2n[nH]c3ccccc23)c1` (stereo not drawn), the cytotoxicity at 70.5 h stood at 16%. Under `Cc1cccc(C2(CNC(C)c3nnc(C)o3)CCCC2)c1` (stereo not drawn) stands -6.44%; under `CCOc1ccc(NC(=O)N(CCC#N)Cc2ccccn2)cc1F`, 12%; under `NC(CNS(=O)(=O)Cc1cccc2cccnc12)c1ccccc1` (stereo not drawn), 28.4%. Turning to `CCCn1ccnc1-c1cccc(NC2CCOC2)c1` (stereo not drawn), the cytotoxicity at 70.5 h was -1.36%. As for `O=C(CO)N1CCCC2(CCN(c3ccsc3)C2=O)C1` (stereo not drawn), the figure is -8.82%.

In the case of `COCC(=O)N1CCCC2(CCN(c3ccccc3)C2=O)C1` (stereo not drawn), the cytotoxicity at 70.5 h is -13.1%. As for `COc1ccc(CNCC2CCN(c3ccccc3OC)C2)cc1O` (stereo not drawn), the figure is 5.43%; as for `CCn1nc2c(cc1=O)CN(CCOc1ccc(C#N)cc1)CC2`, 17.6%; as for `Cc1occc1C(=O)N1CCC2(CC1)C(c1cnn(C)c1)CC(=O)N2C` (stereo not drawn), 4.52%.

Turning to `CC(C)(C)S(=O)(=O)CCNC(=O)c1ccc2ccccc2c1`, the cytotoxicity at 70.5 h turned out to be 0.161%.

As to `CCc1noc(CNc2cccc(C(=O)N3CCSCC3)c2)n1`, the cytotoxicity at 70.5 h worked out at 0.659%. As for `O=C(NC1CC1)N1CCc2ccc(=O)n(Cc3ccncc3)c2CC1`, the figure is 12.1%; as for `Cc1cccc(N2Cc3nc(=O)n(Cc4cccc(F)c4)n3C2=O)c1`, -18%. Under `COCCn1cnc(-c2nc(C(=O)N3CCOCC3)c3ccccn23)c1` stands 5.18%; under `CC(Cn1ccnc1)NC(=O)N1CCN(Cc2ccncc2)CC1` (stereo not drawn), -2.15%; under `Cc1nnc(N2CC[C@H]3C[C@H](C(=O)N4CCOCC4)O[C@H]3C2)s1`, -2.02%. Take `C=C1C(C)(C)[C@H]2CC[C@]1(C(=O)N1CCC(n3cc(CCO)nn3)CC1)C2`: the cytotoxicity at 70.5 h was -10.3%.

For the compound `Cc1noc(C(C)C)c1C(=O)NCC(c1cccc(F)c1)N(C)C` (stereo not drawn), the cytotoxicity at 70.5 h is -21.3%. Under `CCN1CC2(CCC1=O)CCN(C(=O)c1ccc(C)cc1O)CC2` stands -14.7%. As for `CN(C)C1CCC2(CCN(Cc3nccn3C)CC2)c2ccccc21` (stereo not drawn), the cytotoxicity at 70.5 h was -4.41%. As to `CC(=O)Nc1ccc2nc(-c3nccn3CCCN(C)C)ccc2c1`, the cytotoxicity at 70.5 h is -8.35%. Under `O=C(NCc1nncn1C1CC1)C1(c2ccccc2)CCOCC1` stands -6.33%.

`Cc1c(-c2cccs2)nn2c(O)c3c(nc12)CN(C(=O)C1CC1)C3`: the cytotoxicity at 70.5 h was -4.82%. As to `Cc1n[nH]c(C2CN(C(=O)CCc3ccco3)CCO2)n1` (stereo not drawn), the cytotoxicity at 70.5 h was 9.82%.

For `CC(C)(C)C(O)CN1CCN(Cc2ccc(C#N)cc2)CC1` (stereo not drawn), the cytotoxicity at 70.5 h is -6.98%. Under `COCC1N(C(=O)c2ccco2)[C@H]2CC[C@]1(O)CC2` (stereo partly drawn) stands -2.24%; under `CC1c2cccn2CCN1C(=O)CCc1nc(-c2ccccc2)no1` (stereo not drawn), -5.32%; under `CCCNC(=O)c1nc2c(o1)CN(C(=O)CN(C)C)C2`, -8.52%. Under `CCCN(Cc1cccnc1)C1CC(C)(C)NC(C)(C)C1` stands -3.34%; under `CC(C)(C(=O)NCC(=O)N1CCCC1)c1ccccc1F`, 3.99%; under `CNC(=O)CN1CC[C@H]2CN(C(=O)c3ccc(C)nc3)C[C@H]2C1`, -1.44%. Consider `CN(C)c1ncc(C2Nc3cc(Cl)ccc3C3=NCCCN32)cn1` (stereo not drawn), for which the cytotoxicity at 70.5 h is -5.74%. Under `O=C(COC[C@@]12CCC[C@@H]1CN(C1CCCC1)C2)N1CCCC1` stands -1.08%; under `Cn1cc(C(=O)N(Cc2ccco2)Cc2cccs2)ccc1=O`, -8.8%. As for `Cc1ccn(-c2ccc(C(=O)N3CCCC(n4ccnc4)C3)cc2)n1` (stereo not drawn), the figure is -22.3%.
